Measured values reported in patent US5466440A, “Formulations of oral gastrointestinal diagnostic X-ray contrast agents in combination with pharmaceutically acceptable clays” (Eastman Kodak Company, priority 1994, dated 1995).
In brackets after ≈: the same amount, converted by molar mass.

Assays:
[1] = X-ray diagnostic imaging of the GI tract; format: in vivo, rats; details: for Imaging efficacy, stabilized with Pluronic F88: milled with F88
Experimental: X-ray diagnostic imaging was performed in anesthetized rats with the exception of G05-R1 samples which were imaged in fasted and anesthetized ferrets. Images were obtained using the Siemens C-Arm Siremobil 3U x-ray unit. The imaging dose was 10 ml/kg administered via gastric intubation to the anesthetized animal. X-rays were taken at 15, 30, 45 and 60 minutes and at 1, 2, 5 and 24 hours post-dose. […]
Images were evaluated by the criteria of: coating, homogeneity, rate of gastric emptying and the total transit time. These are considered to be a measure of the stability of the nanosuspension during transit down the GI tract and the ability of the formulation to image the lower gastrointestinal tract. Nanosuspensions were rated excellent when there was a uniform coating with transradiation of long intestinal segments, sufficient radiodensity to delineate anatomical structure, rapid emptying and transit, and stability and homogeneity during GI transit. A plus sign (+) was assigned when imaging in the lower GI was exceptional, a minus sign (-) as given when it was not. […] All other nanosuspensions were compared with this formulation.

[2] = X-ray diagnostic imaging of the GI tract; format: in vivo; details: ferrets; milled in Pluronic F127
Experimental: X-ray diagnostic imaging was performed in anesthetized rats with the exception of G05-R1 samples which were imaged in fasted and anesthetized ferrets. Images were obtained using the Siemens C-Arm Siremobil 3U x-ray unit. The imaging dose was 10 ml/kg administered via gastric intubation to the anesthetized animal. X-rays were taken at 15, 30, 45 and 60 minutes and at 1, 2, 5 and 24 hours post-dose. A 10-15 ml volume of air was introduced to the animal at 30 minutes to produce a double contrast image.
Images were evaluated by the criteria of: coating, homogeneity, rate of gastric emptying and the total transit time. These are considered to be a measure of the stability of the nanosuspension during transit down the GI tract and the ability of the formulation to image the lower gastrointestinal tract. Nanosuspensions were rated excellent when there was a uniform coating with transradiation of long intestinal segments, sufficient radiodensity to delineate anatomical structure, rapid emptying and transit, and stability and homogeneity during GI transit. A plus sign (+) was assigned when imaging in the lower GI was exceptional, a minus sign (-) as given when it was not. The nanosuspension of WIN 8883 milled in Pluronic F127, was considered to be excellent for both upper and lower GI imaging in both rats and ferrets. All other nanosuspensions were compared with this formulation.

Aqueous solubility = format: physicochemical; details: water, Table 3

Row | SMILES | solubility (Aqueous solubility) [µg/mL] | Imaging efficacy, overall [1] | Lower GI imaging [1] | further results
1 | CCOC(=O)c1c(I)c(NC(C)=O)c(I)c(NC(C)=O)c1I [WIN 8883, Ethyl 3,5-bis(acetylamino)-2,4,6-triiodobenzoate] | < 5 | excellent | – | Imaging efficacy, stabilized with Pluronic F88 [1]: excellent imaging, and then only in the upper GI; Upper and lower GI imaging ([1]; rats, milled in Pluronic F127): excellent; Upper and lower GI imaging [2]: excellent
2 | CC(=O)Nc1c(I)c(NC(C)=O)c(I)c(C(=O)OCc2ccc(C(=O)OC(C)C)cc2)c1I [WIN 67956, 3,5-Bis-acetylamino-2,4,6-triiodo-benzoic acid 4-isopropyl benzoate ester] | 1 (≈ 1.27 µM) | good | – | Gastric emptying [1]: very rapid gastric emptying; Coating ([1]; repeated with air given at 15 minutes to induce double contrast): No improvement in coating
3 | CCCCC(CC)COC(=O)CC(C(=O)OCC(CC)CCCC)S(=O)(=O)O (stereo not shown) [DOSS, dioctylsulfosuccinate] | – | – | – | Stabilizing effect on imaging efficacy ([1]; stabilizer for WIN 8883 nanosuspension): fair
4 | CCOC(=O)CCCCCOC(=O)c1c(I)c(NC(C)=O)c(I)c(NC(C)=O)c1I [WIN 67722, 6-Ethoxy-6-oxohexyl 3,5-bis(acetylamino)-2,4,6-triiodobenzoate] | 2 (≈ 2.65 µM) | – | poor | Upper GI imaging [1]: good
5 | COc1ccc(COC(=O)c2c(I)c(NC(C)=O)c(I)c(NC(C)=O)c2I)cc1 [WIN 67754, 3,5-Bis-acetylamino-2,4,6-triiodo-benzoic acid 4-methoxy-benzyl ester] | 15 (≈ 20.4 µM) | good | exceptional | –
6 | CCOC(=O)c1c(I)c(NC(C)=O)c(I)c(C(=O)OCC)c1I [WIN 59316, Diethyl 5-acetylamino-2,4,6-triiodo-isophthalate] | 1 (≈ 1.52 µM) | fair | imaging well in the lower GI tract | –

The next lines start with results.

Row | solubility (Aqueous solubility) [µg/mL] | SMILES | Imaging efficacy, overall [1] | Lower GI imaging [1] | further results
7 | < 1 | CCc1c(I)c(CC)c(I)c(CC)c1I [WIN 68756, 1,3,5-Triethyl-2,4,6-triiodobenzene] | excellent | not as definitive as with WIN 8883 | Imaging efficacy, stabilized with Pluronic F88 [1]: loss of efficacy
8 | 1 (≈ 1.3 µM) | CC(=O)Nc1c(I)c(NC(C)=O)c(I)c(C(=O)OCCCCCC(=O)OC(C)C)c1I [WIN 67995, 3,5,-Bis-acetylamino-2,4,6-triiodo-benzoic acid 5-isopropoxycarbonyl-pentylester] | – | poor | Upper GI imaging [1]: good
9 | 8 (≈ 10.2 µM) | CCOC(=O)C(C)(OC(=O)c1c(I)c(NC(C)=O)c(I)c(NC(C)=O)c1I)C(=O)OCC [WIN 67975] | fair | – | –
10 | < 1 | CCOC(=O)C(CC)OC(=O)c1c(I)c(NC(C)=O)c(I)c(C(=O)OC(CC)C(=O)OCC)c1I (stereo not shown) [WIN 68183, Bis-[1-(ethoxycarbonyl)propyl]-2,4,6-triiodo-5-acetylamino-isophthalate] | excellent | not as definitive as with WIN 8883 | Imaging efficacy, stabilized with Pluronic F88 [1]: loss of efficacy
11 | 1 (≈ 1.25 µM) | CC(=O)Nc1c(I)c(NC(C)=O)c(I)c(C(=O)OC(C(=O)OC(C)C)C(=O)OC(C)C)c1I [WIN 68165, Propanedioic Acid, [[3,5-bis-(acetylamino)-2,4,6-triiodo-benzoyl]oxy]-bis(1-methylethyl)ester] | fair | – | –
